The values below come from ChEMBL document CHEMBL4419166, “Use of small molecule inhibitors to klf10 for modulation of t regulatory cells and cancer immunotherapy” (2017).

For test [1], the target named is T1, Krueppel-like factor 10 (Mus musculus) (UniProt O89091).
T1 sequence (whole entry): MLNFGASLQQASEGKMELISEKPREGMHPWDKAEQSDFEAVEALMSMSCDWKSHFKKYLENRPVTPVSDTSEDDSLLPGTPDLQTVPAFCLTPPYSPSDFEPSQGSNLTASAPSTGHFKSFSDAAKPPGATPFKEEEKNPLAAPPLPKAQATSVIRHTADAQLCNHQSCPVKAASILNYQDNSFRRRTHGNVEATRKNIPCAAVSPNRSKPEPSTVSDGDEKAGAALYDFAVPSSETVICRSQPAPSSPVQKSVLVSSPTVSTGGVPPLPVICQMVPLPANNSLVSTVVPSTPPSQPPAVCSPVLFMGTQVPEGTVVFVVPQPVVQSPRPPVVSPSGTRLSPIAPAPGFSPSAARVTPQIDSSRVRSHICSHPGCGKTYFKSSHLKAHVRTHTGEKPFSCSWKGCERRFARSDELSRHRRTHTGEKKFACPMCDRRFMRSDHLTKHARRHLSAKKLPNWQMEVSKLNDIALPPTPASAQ
The test is described as follows: Inhibition of KLF10 in mouse CD4+CD25- T cells assessed as reduction in checkpoint markers on iTregs by measuring CTLA4 expression level. The class given is cell-based. The arrangement: scale not given: the % may be the effect or the level left.

The target in test [2] is T1, Krueppel-like factor 10 (Mus musculus). The test is described as follows: Inhibition of KLF10 in mouse CD4+CD25- T cells assessed as reduction in checkpoint markers on iTregs by measuring PDL1 expression level. The test is classed as cell-based. Also noted: scale not given: the % may be the effect or the level left.
Test [3] has as its target Krueppel-like factor 1 (Homo sapiens) (UniProt Q13351). The test is described as follows: Inhibition of GST-tagged KLF1 (unknown origin) binding to double-stranded DNA at 8 uM by electromobility gel shift assay relative to control.
Test [4] deals with T1, Krueppel-like factor 10 (Mus musculus). The test is described as follows: Inhibition of KLF10 in mouse CD4+CD25- T cells assessed as reduction in checkpoint markers on iTregs by measuring PD1 expression level. The class given is cell-based. Also noted: scale not given: the % may be the effect or the level left.
Test [5] concerns the target Krueppel-like factor 1 (Homo sapiens) (UniProt Q13351). The test is described as follows: Inhibition of GST-tagged KLF1 (unknown origin) binding to double-stranded DNA at 40 uM by electromobility gel shift assay relative to control. (In EMSA bound probe runs differently from free probe, usually more slowly.)
In test [6] the test system is Mus musculus. The test can be described thus: Antitumor activity against mouse TRAMP-C2 cells implanted in mouse assessed as reduction tumor volume at 200 mg/kg, ip dosed on day 3 to 7. The test is classed as functional, organism-based.
In test [7] the test system is B16. The test is described as follows: Antitumor activity against mouse B16 cells implanted in mouse assessed as reduction tumor volume at 200 mg/kg, ip dosed on day 3 to 7. The class given is functional, organism-based.
The target of test [8] is T1, Krueppel-like factor 10 (Mus musculus). The test can be described thus: Inhibition of KLF10 in mouse CD4+CD25- T cells assessed as reduction in Foxp3 mRNA expression incubated for 5 days by real time qPCR analysis relative to control. The class given is cell-based. (Real-time PCR tracks product formation cycle by cycle.)
The test system of test [9] is Mus musculus. The test can be described thus: Suppression of TGF-beta1 expression in CD4+ T cells isolated from mouse B16 cells implanted mouse at 25 to 100 mg/kg, ip. The test is classed as functional, organism-based.
The test system of test [10] is B16. The test is described as follows: Antitumor activity against mouse B16cells implanted in mouse assessed as reduction tumor volume at 20 mg/kg dosed via local injection on day 0 and measured from day 4 to day 13. The class given is functional, organism-based.
Test [11] concerns the target T1, Krueppel-like factor 10 (Mus musculus). The test is described as follows: Inhibition of KLF10 in mouse CD4+CD25- T cells assessed as reduction in Foxp3 mRNA expression at 50 uM incubated for 5 days by real time qPCR analysis relative to control. The test is classed as cell-based.
Test [12] has the same target. The test is described as follows: Inhibition of KLF10 in mouse CD4+CD25- T cells assessed as reduction in PD1 mRNA expression at 50 uM incubated for 5 days by real time qPCR analysis relative to control. The class given is cell-based.

Structures are written as SMILES. Active and inactive are the calls of the source. No cut-off for these calls is given here.

Sequence of Krueppel-like factor 1 (Homo sapiens) (Q13351 whole entry): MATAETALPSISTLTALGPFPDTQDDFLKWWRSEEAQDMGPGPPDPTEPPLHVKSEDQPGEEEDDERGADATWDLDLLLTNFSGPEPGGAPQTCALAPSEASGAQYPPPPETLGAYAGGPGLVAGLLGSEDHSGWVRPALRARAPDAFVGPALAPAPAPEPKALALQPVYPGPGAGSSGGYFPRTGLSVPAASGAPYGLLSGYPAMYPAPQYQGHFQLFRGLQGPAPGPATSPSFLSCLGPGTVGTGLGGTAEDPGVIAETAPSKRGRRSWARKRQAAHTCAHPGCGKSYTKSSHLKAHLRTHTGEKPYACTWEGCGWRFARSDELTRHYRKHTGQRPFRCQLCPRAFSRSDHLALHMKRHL

For `Cc1ccc(OCC(=O)c2cc(C)c(O)cc2O)cc1`, the Activity in [1] is 88.7%; in [2], 43.7%; in test [4], 49.4%. The inhibition entry in [3] and in [5] was “inactive” throughout. The inhibition result (with Mus musculus [6]; with B16 [7]; in test [8]; with Mus musculus [9]) was “Active” each time. The outcome in the test with B16 [10] was Active.

In the case of `COc1ccc(C(=O)COC(=O)c2cc(C)ccc2O)cc1`, the Activity stood at 92% in [1], 53.1% in [2] and 47.6% in test [4]. The inhibition result in [3] and in [5] was “inactive” throughout. The inhibition in [11] was determined as 82.5%. Moreover, the inhibition result in test [12] and in [8] was “Active” each time.

What is called inhibition is the drop in the measured response relative to a control, in per cent.
